Results from patent US8937095B2, “Anticancer compounds” (Boehringer Ingelheim International GmbH, priority 2012, dated 2015).

Key:
Calu6 cells = experiment: Proliferation assay (CyQuant Direct), Calu6 cells; format: cell-based; details: Homo sapiens, Calu-6; 72 hour incubation; read-out: GI50 antiproliferative effect on Calu6 cells
Experimental: (§1) Experimental Procedure of Proliferation Assay:
(§2) A375 and Calu6 cells are grown in RPMI1640, 10% FBS, in a humidified atmosphere of 5% CO2 at 37° C. Cells are seeded into flat bottom 96 well microtiter plates and incubated in a humidified atmosphere of 5% CO2 at 37° C. for 24 hours. Compounds are added, at the same time, a “time zero” untreated cell plate is stained and measured after 1 h. Compounds are serially diluted 5-fold from the highest test concentration (10 μM) and assayed over 8 concentrations in duplicates. The concentration of the solvent DMSO in the final culture is 0.1%. After a 72 hour incubation period, cells are stained with fluorescent nuclear dye to allow visualization of nuclei (CyQuant Direct Cell Proliferation Assay, Invitrogen Cat. No. C35012). Total fluorescence intensity of each well is measured using an Envision platform with excitation at 480 nm, emission detection at 535 nm. The assay signal correlates to the number of nuclei and thus, by definition, to the number of cells in the culture well (“cell count”).
(§3) The cell proliferation assay output for control cells after 72 hours of incubation, corresponding to 100% cell proliferation, is taken as the reference cell count for all subsequent calculations. Relative cell proliferation in compound-treated cultures (signal percent of control, “POC”) is calculated according to the following formula: POC(t=72 h)=100*fluorescence(compound wells)/fluorescence(control wells)
(§4) In addition, for each compound-treated culture, the cell count after incubation for 72 hours (POC(t=72h)) is related to the cell count at the start of treatment (POC(t=0 h)): POC(t=0 h)=100*fluorescence at t=0(control wells)/fluorescence at t=72 h(control wells)
(§5) The concentration-response curves were calculated using the dose-response package (drc versio 2.0-1 http://cran.rproject.org/web/packages/drc/index.html) from R (version 2.10.1 http://www.r-project.org/). […]
(§6) Relative cell growth inhibition (CGI %) in compound-treated cultures is calculated according to the following formula: […]

A375 cells = experiment: Proliferation assay (CyQuant Direct), A375 cells; format: cell-based; details: Homo sapiens, A-375; 72 hour incubation; read-out: GI50 antiproliferative effect on A375 cells
Experimental: as §1, §2, §3, §4, §5, §6

GI50 (Calu6 cells) [nM] | GI50 (A375 cells) [nM] | SMILES
11.3 | 17.3 | CCNC(=O)C#Cc1ccc2c(c1)NC(=O)/C2=C(\Nc1ccc(C[N+](C)(C)[O-])cc1)c1ccccc1 [Compound 27, 3-[3-[[4-(dimethyloxidoaminomethyl)anilino]-phenylmethylidene]-2-oxo-1H-indol-6-yl]-N-ethylprop-2-ynamide]
7.82 | 3.37 | CCNC(=O)C#Cc1ccc2c(c1)NC(=O)/C2=C(\Nc1ccc(CNC)cc1)c1ccccc1 [Compound 26, 3-[3-[[4-(methylaminomethyl)anilino]-phenylmethylidene]-2-oxo-1H-indol-6-yl]-N-ethylprop-2-ynamide]

SMILES | GI50 (Calu6 cells) [nM] | GI50 (A375 cells) [nM]
CCNC(=O)C#Cc1ccc2c(c1)NC(=O)/C2=C(\Nc1ccc(CN(C)C)cc1)c1ccccc1 [Compound 6, 3-[3-[[4-(dimethylaminomethyl)anilino]-phenylmethylidene]-2-oxo-1H-indol-6-yl]-N-ethylprop-2-ynamide] | 7.66 | 2.7
